DC50 and Dmax data for eleven compounds are collected here from patent publication US12599672B2, “KRAS proteolysis targeting chimeras” (PAQ Therapeutics Inc., priority 2023, dated 2026).

Holding throughout (format): cell-based
For one experiment, the target named is T1, KRAS (Homo sapiens, UniProt P01116).
T1 construct: endogenous in cells; host or cells: KE39 (KRAS amplified) cells
The experiment is described as follows: KRASamp MSD assay. Conditions: KE39 (KRAS amplified) cells, treated with test compounds for 24 hr, MSD readout of KRAS degradation. The procedure, abridged:
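KRAS-amplified KE39 cells treated with compound for 24 hr, then lysed in RIPA buffer with protease/phosphatase inhibitors. KRAS protein measured by MSD sandwich immunoassay against a recombinant WT KRAS standard curve; DC50 derived from curve fitting of degradation.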

The target in the next experiment is T2, KRAS G12V (Homo sapiens, UniProt P01116, G12V).
T2 construct: SW620-KRAS (G12V)-HiBit-KI cell (Pharmaron); host or cells: SW620-KRAS (G12V)-HiBit-KI cells (HiBiT knock-in at the endogenous KRAS locus)
The experiment is described as follows: KRAS G12V HiBit assay. To be noted: SW620-KRAS (G12V)-HiBit-KI cells, compound treatment for 24 hours, class symbols. The gist of the method: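 HiBiT-tagged KRAS G12V cells treated 24 h with compound in a 3-fold, 10-point series (0.3 mM DMSO stock); lytic HiBiT reagent with LgBiT added after 15 min room-temperature equilibration. Degradation calculated against 0.1% DMSO high control.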

The target in another experiment is T3, KRAS G12D (Homo sapiens, UniProt P01116, G12D).
T3 construct: AsPc-1-KRAS (G12D)-HiBit-KI cell (Pharmaron); host or cells: AsPc-1-KRAS (G12D)-HiBit-KI cells (HiBiT knock-in at the endogenous KRAS locus)
Description: KRAS G12D HiBit assay. Conditions: AsPc-1-KRAS (G12D)-HiBit-KI cell, compound treatment for 24 hours; for DC50: absolute DC50. The gist of the method: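 Cells were treated for 24 h with compounds in a 3-fold, 10-point dilution series from a 0.3 mM DMSO stock, then equilibrated 15 min at room temperature. KRAS G12D HiBiT levels were read by luminescence after lytic Nano-Glo HiBiT reagent with LgBiT; inhibition calculated relative to 0.1% DMSO high control.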

Where [1] appears, read: numeric bounds given in place of class symbols.

T1 sequence (P01116 1-188 isoform P01116-2): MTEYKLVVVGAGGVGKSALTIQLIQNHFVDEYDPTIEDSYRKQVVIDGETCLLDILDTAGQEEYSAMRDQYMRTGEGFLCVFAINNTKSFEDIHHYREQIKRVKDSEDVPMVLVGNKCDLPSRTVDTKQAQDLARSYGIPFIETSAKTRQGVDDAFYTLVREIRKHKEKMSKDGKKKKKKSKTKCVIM
T2 sequence (P01116 1-188 isoform P01116-2 G12V): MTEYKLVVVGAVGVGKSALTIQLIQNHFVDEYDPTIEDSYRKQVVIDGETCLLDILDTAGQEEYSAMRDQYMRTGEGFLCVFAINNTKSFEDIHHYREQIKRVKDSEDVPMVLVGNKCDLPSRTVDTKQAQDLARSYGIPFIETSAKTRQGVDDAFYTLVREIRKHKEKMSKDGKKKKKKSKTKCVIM
T3 sequence (P01116 1-188 isoform P01116-2 G12D): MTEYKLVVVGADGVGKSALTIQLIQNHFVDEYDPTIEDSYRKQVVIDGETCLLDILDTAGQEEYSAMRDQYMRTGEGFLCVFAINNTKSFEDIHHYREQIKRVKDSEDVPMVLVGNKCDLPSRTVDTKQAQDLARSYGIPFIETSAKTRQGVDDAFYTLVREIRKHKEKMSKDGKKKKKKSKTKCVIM

For `C#Cc1c(F)ccc2cc(O)cc(-c3ncc4c(N5CCC[C@@](C)(O)C5)nc(OCC5(CN6CCN(CC7CCN(c8ccc9c(c8)n(C)c(=O)n9C8CCC(=O)NC8=O)CC7)CC6)CC5)nc4c3F)c12` (stereo partly drawn) [Compound 14, 3-[5-[4-[[4-[[1-[[7-(8-Ethynyl-7-fluoro-3-hydroxy-1-naphthyl)-8-fluoro-4-[(3R)-3-hydroxy-3-methyl-1-piperidyl]pyrido[4,3-d]pyrimidin-2-yl]oxymethyl]cyclopropyl]methyl]piperazin-1-yl]methyl]-1-piperidyl]-3-methyl-2-oxo-benzimidazol-1-yl]piperidine-2,6-dione], the DC50 at KRAS is below 1 nM; on KRAS G12V, below 10 nM; on KRAS G12D (class symbols), below 100 nM. The compound further yielded a Dmax at KRAS G12D (class symbols) above 50%.
For the compound `CCc1c(F)ccc2cc(O)cc(-c3ncc4c(N5CCC[C@@](C)(O)C5)nc(OC[C@@]56CCCN5[C@H](COC(=O)N5CCCC5CN5CCC(c7ccc8c(c7)n(C)c(=O)n8C7CCC(=O)NC7=O)CC5)CC6)nc4c3F)c12` (stereo partly drawn) [Compound 434, ((3S,7aS)-7a-(((7-(8-ethyl-7-fluoro-3-hydroxynaphthalen-1-yl)-8-fluoro-4-((R)-3-hydroxy-3-methylpiperidin-1-yl)pyrido[4,3-d]pyrimidin-2-yl)oxy)methyl)hexahydro-1H-pyrrolizin-3-yl)methyl 2-((4-(1-(2,6-dioxopiperidin-3-yl)-3-methyl-2-oxo-2,3-dihydro-1H-benzo[d]imidazol-5-yl)piperidin-1-yl)methyl)pyrrolidine-1-carboxylate], the DC50 at KRAS was 1 to 10 nM; at KRAS G12V it was 10 to 100 nM; at KRAS G12D (class symbols) it was below 100 nM.
Take `C#Cc1c(F)ccc2cc(O)cc(-c3ncc4c(N5CCC[C@@](C)(O)C5)nc(OC[C@@]56CCCN5[C@H](COC(=O)N5CCC7(CC5)CC(N5CCC(c8ccc9c(c8)n(C)c(=O)n9C8CCC(=O)NC8=O)CC5)C7)CC6)nc4c3F)c12` (stereo partly drawn) [Compound 158, ((3S,7aS)-7a-(((7-(8-Ethynyl-7-fluoro-3-hydroxynaphthalen-1-yl)-8-fluoro-4-((R)-3-hydroxy-3-methylpiperidin-1-yl)pyrido[4,3-d]pyrimidin-2-yl)oxy)methyl)hexahydro-1H-pyrrolizin-3-yl)methyl-2-(4-(1-(2,6-dioxopiperidin-3-yl)-3-methyl-2-oxo-2,3-dihydro-1H-benzo[d]imidazol-5-yl)piperidin-1-yl)-7-azaspiro[3.5]nonane-7-carboxylate]: the values for the DC50 at KRAS, on KRAS G12V and at KRAS G12D (class symbols) were below 1 nM, below 10 nM and below 100 nM, respectively.
The like results for `C#Cc1c(F)ccc2cc(O)cc(-c3ncc4c(N5CCC[C@@](C)(O)C5)nc(OCC5(CN6CCC7(CC6)CC(N6CCC(c8cccc9c(C%10CCC(=O)NC%10=O)nn(C)c89)CC6)C7)CC5)nc4c3F)c12` (stereo partly shown) [Compound 69] were, in that order, below 1 nM, below 10 nM and below 100 nM.
For `CCc1c(F)ccc2cc(O)cc(-c3ncc4c(N5CCC[C@@](C)(O)C5)nc(OC[C@]56CCCN5[C@H](COC(=O)NC5CCN(c7cccc8c7n(C)c(=O)n8C7CCC(=O)NC7=O)CC5)CC6)nc4c3F)c12` (stereo partly drawn) [Compound 311, ((3S,7aR)-7a-(((7-(8-ethyl-7-fluoro-3-hydroxynaphthalen-1-yl)-8-fluoro-4-((R)-3-hydroxy-3-methylpiperidin-1-yl)pyrido[4,3-d]pyrimidin-2-yl)oxy)methyl)hexahydro-1H-pyrrolizin-3-yl)methyl (1-(1-(2,6-dioxopiperidin-3-yl)-3-methyl-2-oxo-2,3-dihydro-1H-benzo[d]imidazol-4-yl)piperidin-4-yl)carbamate], the DC50 at KRAS is at least 10 nM; on KRAS G12V, above 100 nM; on KRAS G12D (class symbols) it was below 100 nM.
For the compound `C#Cc1c(F)ccc2cc(O)cc(-c3ncc4c(N5CCC[C@@](C)(O)C5)nc(OC[C@@]56CCCN5[C@H](COC(=O)NC5CN(C7CCN(c8ccc9c(c8)n(C)c(=O)n9C8CCC(=O)NC8=O)CC7)C5)CC6)nc4c3F)c12` (stereo partly drawn) [Compound 325, ((3S,7aS)-7a-(((7-(8-ethynyl-7-fluoro-3-hydroxynaphthalen-1-yl)-8-fluoro-4-((R)-3-hydroxy-3-methylpiperidin-1-yl)pyrido[4,3-d]pyrimidin-2-yl)oxy)methyl)hexahydro-1H-pyrrolizin-3-yl)methyl (1-(1-(1-(2,6-dioxopiperidin-3-yl)-3-methyl-2-oxo-2,3-dihydro-1H-benzo[d]imidazol-5-yl)piperidin-4-yl)azetidin-3-yl)carbamate], the figures for the DC50 at KRAS, on KRAS G12V and at KRAS G12D (setting [1]) were at least 10 nM, above 100 nM and above 100 nM, respectively.
`C#Cc1c(F)ccc2cc(O)cc(-c3ncc4c(N5CCC[C@@](C)(O)C5)nc(OC[C@@]56CCCN5[C@H](COC(=O)N5CCC(CC#Cc7cccc8c7n(C)c(=O)n8C7CCC(=O)NC7=O)CC5)CC6)nc4c3F)c12` (stereo partly drawn) [Compound 374, ((3S,7aS)-7a-(((7-(8-ethynyl-7-fluoro-3-hydroxynaphthalen-1-yl)-8-fluoro-4-((R)-3-hydroxy-3-methylpiperidin-1-yl)pyrido[4,3-d]pyrimidin-2-yl)oxy)methyl)hexahydro-1H-pyrrolizin-3-yl)methyl 4-(3-(1-(2,6-dioxopiperidin-3-yl)-3-methyl-2-oxo-2,3-dihydro-1H-benzo[d]imidazol-4-yl)prop-2-yn-1-yl)piperidine-1-carboxylate]: the DC50 at KRAS fell in the range of 1 to 10 nM; at KRAS G12V, 10 to 100 nM; on KRAS G12D (class symbols) it was 100 to 300 nM.
For `CCc1c(F)ccc2cc(O)cc(-c3ncc4c(N5CCCOCC5)nc(OC[C@@]56CCCN5[C@H](COC(=O)N5CCC(CN7CCC(c8ccc9c(c8)n(C)c(=O)n9C8CCC(=O)NC8=O)CC7)CC5)CC6)nc4c3F)c12` (stereo partly drawn) [Compound 422, ((3S,7aS)-7a-(((7-(8-ethyl-7-fluoro-3-hydroxynaphthalen-1-yl)-8-fluoro-4-(1,4-oxazepan-4-yl)pyrido[4,3-d]pyrimidin-2-yl)oxy)methyl)hexahydro-1H-pyrrolizin-3-yl)methyl 4-((4-(1-(2,6-dioxopiperidin-3-yl)-3-methyl-2-oxo-2,3-dihydro-1H-benzo[d]imidazol-5-yl)piperidin-1-yl)methyl)piperidine-1-carboxylate], the DC50 was below 1 nM at KRAS, below 10 nM at KRAS G12V and below 100 nM on KRAS G12D (class symbols).
Consider `C#Cc1c(F)ccc2cc(O)cc(-c3ncc4c(N5CCC[C@@](C)(O)C5)nc(OC[C@@]56CCCN5[C@H](COC(=O)N5CCC7(CC5)CC(N5CCC(c8cccc9c8n(C)c(=O)n9C8CCC(=O)NC8=O)CC5)C7)CC6)nc4c3F)c12` (stereo partly drawn) [Compound 387, ((3S,7aS)-7a-(((7-(8-ethynyl-7-fluoro-3-hydroxynaphthalen-1-yl)-8-fluoro-4-((R)-3-hydroxy-3-methylpiperidin-1-yl)pyrido[4,3-d]pyrimidin-2-yl)oxy)methyl)hexahydro-1H-pyrrolizin-3-yl)methyl 2-(4-(1-(2,6-dioxopiperidin-3-yl)-3-methyl-2-oxo-2,3-dihydro-1H-benzo[d]imidazol-4-yl)piperidin-1-yl)-7-azaspiro[3.5]nonane-7-carboxylate], for which the DC50 on KRAS was at least 10 nM; at KRAS G12V it was below 10 nM; on KRAS G12D (class symbols), below 100 nM.
In the same order, the values of `Cn1c(=O)n(C2CCC(=O)NC2=O)c2cc(F)c(C3CCN(CC4CCN(C(=O)OC[C@@H]5CC[C@]6(COc7nc(N8CCC[C@@](C)(O)C8)c8cnc(-c9cc(O)cc%10ccc(F)cc9%10)c(F)c8n7)CCCN56)CC4)CC3)cc21` (stereo partly drawn) [Compound 447, ((3S,7aS)-7a-(((8-fluoro-7-(7-fluoro-3-hydroxynaphthalen-1-yl)-4-((R)-3-hydroxy-3-methylpiperidin-1-yl)pyrido[4,3-d]pyrimidin-2-yl)oxy)methyl)hexahydro-1H-pyrrolizin-3-yl)methyl 4-((4-(1-(2,6-dioxopiperidin-3-yl)-6-fluoro-3-methyl-2-oxo-2,3-dihydro-1H-benzo[d]imidazol-5-yl)piperidin-1-yl)methyl)piperidine-1-carboxylate] are below 1 nM, below 10 nM and below 100 nM.
Consider `C#Cc1c(F)ccc2cc(O)cc(-c3ncc4c(N5CCCC(F)(F)C5)nc(OC[C@]56CCCN5[C@H](COC(=O)N5CCC(CN7CCC(c8ccc9c(c8)n(C)c(=O)n9C8CCC(=O)NC8=O)CC7)CC5)CC6)nc4c3F)c12` (stereo partly drawn) [Compound 431, ((3S,7aR)-7a-(((4-(3,3-difluoropiperidin-1-yl)-7-(8-ethynyl-7-fluoro-3-hydroxynaphthalen-1-yl)-8-fluoropyrido[4,3-d]pyrimidin-2-yl)oxy)methyl)hexahydro-1H-pyrrolizin-3-yl)methyl 4-((4-(1-(2,6-dioxopiperidin-3-yl)-3-methyl-2-oxo-2,3-dihydro-1H-benzo[d]imidazol-5-yl)piperidin-1-yl)methyl)piperidine-1-carboxylate], for which the DC50 is 1 to 10 nM at KRAS, below 10 nM at KRAS G12V and above 100 nM on KRAS G12D (setting [1]).
